Measurements as given in patent publication US5965598A, “Zinc-phthalocyanines and corresponding conjugates, their preparation and use in photodynamic therapy and as diagnostic agents” (priority 1997, dated 1999).

Key:
E. Coli (strain 04) = experiment: Photoinactivation of microorganisms: E. coli; type: cell-based, Escherichia coli (strain 04); details: footnote below the P. aeruginosa / E. coli table
Experimental: (§1) The experimental protocol was the following:
(§2) Incubation in dark at 37° C. (5 min to 1 hour).

Branhamella catarrhalis = experiment: Photoinactivation of microorganisms: Branhamella catarrhalis; type: cell-based; details: footnote
Experimental: as §1, §2

[1] = test system: Staphylococcus aureus (ATCC 6538P); experiment: Photoinactivation of microorganisms: Staphylococcus aureus; type: cell-based; details: 1 μM; 15 mW/cm2, 30 min
Experimental: as §1, §2

Q: `[Zn+2].c1ccc2c(c1)-c1nc-2nc2[n-]c(nc3nc([n-]c4nc(n1)-c1ccccc1-4)-c1ccccc1-3)c1ccccc21` [ZnPC, ZnPhthalocyanine] was tested. Which “Photoinactivation activity (in words)” value (E. Coli (strain 04)) did it give?
A: not active

Q: And the “Photoinactivation activity (in words)” value (Branhamella catarrhalis)?
A: not active

Q: What about the Cell mortality [1] of the same molecule?
A: 99.99
